Results: PubChem BioAssay AID1918994 (Molecular Pharmacology Branch, DTP, NCI, 2023)

Test system: 292921-168-R-J2-PDC complex spheroid growth
Experiment: Anticancer human tumor 292921-168-R-J2-PDC patient-derived pancreatic carcinoma cell line growth inhibition [AhR]
Conditions: for IC50: curve of first compound; for viability, T/C: stronger effect = lower value
Outline: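 Complex tumor spheroids co-cultured with HUVEC and human MSC stroma; AhR antagonists tested in combination with standard-of-care and investigational agents. Top concentration at or near clinical Cmax (else 10 microM), half-log dilutions; growth expressed as percent test/control.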

[1] = second compound 0.1 µM, first compound 0.0316 µM
[2] = second compound 0.1 µM, first compound 0.1 µM
[3] = second compound 0.1 µM, first compound 0.316 µM
[4] = second compound 0.1 µM, first compound 1 µM
[5] = second compound 0.1 µM, first compound 3.16 µM
[6] = second compound 0.1 µM, first compound 10 µM
[7] = second compound 0.316 µM, first compound 0.0316 µM
[8] = second compound 0.316 µM, first compound 0.1 µM
[9] = second compound 0.316 µM, first compound 0.316 µM
[10] = second compound 0.316 µM, first compound 1 µM
[11] = second compound 0.316 µM, first compound 3.16 µM
[12] = second compound 0.316 µM, first compound 10 µM
[13] = second compound 1 µM, first compound 0.0316 µM
[14] = second compound 1 µM, first compound 0.1 µM
[15] = second compound 1 µM, first compound 0.316 µM
[16] = second compound 1 µM, first compound 1 µM
[17] = second compound 1 µM, first compound 3.16 µM
[18] = second compound 1 µM, first compound 10 µM
[19] = second compound 3.16 µM, first compound 0.0316 µM
[20] = second compound 3.16 µM, first compound 0.1 µM
[21] = second compound 3.16 µM, first compound 0.316 µM
[22] = second compound 3.16 µM, first compound 1 µM
[23] = second compound 3.16 µM, first compound 3.16 µM
[24] = second compound 3.16 µM, first compound 10 µM
[25] = second compound 10 µM, first compound 0.0316 µM
[26] = second compound 10 µM, first compound 0.1 µM
[27] = second compound 10 µM, first compound 0.316 µM
[28] = second compound 10 µM, first compound 1 µM
[29] = second compound 10 µM, first compound 3.16 µM
[30] = second compound 10 µM, first compound 10 µM
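Further: spheroids exposed to compounds for seven days after three days of growth.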

Row | Structure (SMILES) | IC50 (second compound 0.1 µM) [nM] | IC50 (second compound 0.316 µM) [nM] | IC50 (second compound 1 µM) [nM] | IC50 (second compound 3.16 µM) [nM] | IC50 (second compound 10 µM) [nM] | viability, T/C [1] [%] | viability, T/C [2] [%] | viability, T/C [3] [%] | viability, T/C [4] [%] | viability, T/C [5] [%] | viability, T/C [6] [%] | viability, T/C [7] [%] | viability, T/C [8] [%] | viability, T/C [9] [%] | viability, T/C [10] [%] | viability, T/C [11] [%] | viability, T/C [12] [%] | viability, T/C [13] [%] | viability, T/C [14] [%] | viability, T/C [15] [%] | further results
1 | Nc1ccccc1NC(=O)c1ccc(CNC(=O)OCc2cccnc2)cc1 + Cc1cncc(-c2nc(NCCc3c[nH]c4ccccc34)c3ncn(C(C)C)c3n2)c1 | 351 | 242 | 251 | < 31.6 | < 31.6 | 75.2 | 63.8 | 48.1 | 40.9 | 27.9 | 13.4 | 68.2 | 57 | 49.7 | 33.6 | 25.7 | 11.5 | 58.4 | 60.7 | 45.7 | viability, T/C [16]: 35.9%; viability, T/C [17]: 22.9%; viability, T/C [18]: 11.9%; viability, T/C [19]: 43.5%; viability, T/C [20]: 47.4%; viability, T/C [21]: 39.3%; viability, T/C [22]: 30.5%; viability, T/C [23]: 17.2%; viability, T/C [24]: 10.9%; viability, T/C [25]: 27.8%; viability, T/C [26]: 27.9%; viability, T/C [27]: 22.6%; viability, T/C [28]: 22.4%; viability, T/C [29]: 15.4%; viability, T/C [30]: 7.52%
2 | O=C(C=Cc1cccc(S(=O)(=O)Nc2ccccc2)c1)NO + Cc1cncc(-c2nc(NCCc3c[nH]c4ccccc34)c3ncn(C(C)C)c3n2)c1 | 374 | 460 | 280 | < 31.6 | < 31.6 | 76 | 59.6 | 46.1 | 41 | 36 | 3.84 | 69.9 | 61.4 | 50.9 | 39.9 | 33.4 | 3.8 | 55.3 | 59.7 | 49.6 | viability, T/C [16]: 35.4%; viability, T/C [17]: 30.5%; viability, T/C [18]: 4.08%; viability, T/C [19]: 46.3%; viability, T/C [20]: 46.6%; viability, T/C [21]: 46%; viability, T/C [22]: 31.9%; viability, T/C [23]: 31.7%; viability, T/C [24]: 4.11%; viability, T/C [25]: 32.9%; viability, T/C [26]: 34.2%; viability, T/C [27]: 30.1%; viability, T/C [28]: 29%; viability, T/C [29]: 26.6%; viability, T/C [30]: 6.63%
3 | O=C(c1cc(Cc2n[nH]c(=O)c3ccccc23)ccc1F)N1CCN(C(=O)C2CC2)CC1 + Cc1cncc(-c2nc(NCCc3c[nH]c4ccccc34)c3ncn(C(C)C)c3n2)c1 | > 10000 | > 10000 | > 10000 | > 10000 | < 31.6 | 88.1 | 94.8 | 85.6 | 89.7 | 89.8 | 70.3 | 91.6 | 89.3 | 88.8 | 84.7 | 87.9 | 65.6 | 84.2 | 80.6 | 80.6 | viability, T/C [16]: 88.2%; viability, T/C [17]: 85.5%; viability, T/C [18]: 61.5%; viability, T/C [19]: 61.6%; viability, T/C [20]: 67.3%; viability, T/C [21]: 69.2%; viability, T/C [22]: 66%; viability, T/C [23]: 68.6%; viability, T/C [24]: 54.2%; viability, T/C [25]: 44%; viability, T/C [26]: 47%; viability, T/C [27]: 44.9%; viability, T/C [28]: 44.5%; viability, T/C [29]: 43.4%; viability, T/C [30]: 37.2%
